Results published in ChEMBL document CHEMBL1201862, “PubChem BioAssay data set” (2004).
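Cultured in 96-well plates, cells were exposed to test compound for 48 hours across five concentrations. At the GI50, growth is halved.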 The source made the active and inactive calls. Cut-off read from the data, not from the text of the source: active = GI50 up to about 1.1 µM and inactive = higher.

Legend:
Assay in all cases: NCI anticancer screen, dose series, 48 h
786-0 = tested on: 786-0
A498 = tested on: A498
A549 = tested on: A549
ACHN = tested on: ACHN
CAKI-1 = tested on: CAKI-1
CCRF-CEM = tested on: CCRF-CEM
COLO 205 = tested on: COLO 205
DLD-1 = tested on: DLD-1
DMS-114 = tested on: DMS-114
DMS-273 = tested on: DMS-273
EKVX = tested on: EKVX
HCT-116 = tested on: HCT-116
HCT-15 = tested on: HCT-15
HOP-18 = tested on: HOP-18
HOP-62 = tested on: HOP-62
HOP-92 = tested on: HOP-92
HT-29 = tested on: HT-29
IGROV-1 = tested on: IGROV-1
K562 = tested on: K562
KM-20L2 = tested on: KM-20L2
KM12 = tested on: KM12
LXFL 529 = tested on: LXFL 529
M14 = tested on: M14
M19-MEL = tested on: M19-MEL
MOLT-4 = tested on: MOLT-4
Malme-3M = tested on: Malme-3M
NCI-H226 = tested on: NCI-H226
NCI-H23 = tested on: NCI-H23
NCI-H460 = tested on: NCI-H460
NCI-H522 = tested on: NCI-H522
OVCAR-4 = tested on: OVCAR-4
OVCAR-5 = tested on: OVCAR-5
OVCAR-8 = tested on: OVCAR-8
RPMI-8226 = tested on: RPMI-8226
RXF 393 = tested on: RXF 393
SF-268 = tested on: SF-268
SF-295 = tested on: SF-295
SF-539 = tested on: SF-539
SK-MEL-28 = tested on: SK-MEL-28
SK-MEL-2 = tested on: SK-MEL-2
SK-MEL-5 = tested on: SK-MEL-5
SK-OV-3 = tested on: SK-OV-3
SN12C = tested on: SN12C
SNB-19 = tested on: SNB-19
SNB-75 = tested on: SNB-75
SNB-78 = tested on: SNB-78
SR = tested on: SR
TK-10 = tested on: TK-10
U-251 = tested on: U-251
UACC-257 = tested on: UACC-257
UACC-62 = tested on: UACC-62
UO-31 = tested on: UO-31
XF498 = tested on: XF498
HCC 2998 = tested on: HCC 2998
OVCAR-3 = tested on: OVCAR-3
RXF 631 = tested on: RXF 631
SW-620 = tested on: SW-620
HL-60 = tested on: HL-60
LOX IMVI = tested on: LOX IMVI

**Q.** Which results are given for COc1ccc([C@H]2CC(=O)NCCCCN2)cc1?
**A.** GI50 (786-0): > 100 µM (inactive); GI50 (A498): > 100 µM (inactive); GI50 (A549): > 100 µM (inactive); GI50 (ACHN): > 100 µM (inactive); GI50 (CAKI-1): > 100 µM (inactive); GI50 (CCRF-CEM): > 100 µM (inactive); GI50 (COLO 205): > 100 µM (inactive); GI50 (DLD-1): > 100 µM (inactive); GI50 (DMS-114): > 100 µM (inactive); GI50 (DMS-273): > 100 µM (inactive); GI50 (EKVX): > 100 µM (inactive); GI50 (HCT-116): > 100 µM (inactive); GI50 (HCT-15): > 100 µM; GI50 (HOP-18): > 100 µM (inactive); GI50 (HOP-62): > 100 µM (inactive); GI50 (HOP-92): 57.1 µM (inactive); GI50 (HT-29): > 100 µM (inactive); GI50 (IGROV-1): > 100 µM (inactive); GI50 (K562): > 100 µM (inactive); GI50 (KM-20L2): > 100 µM (inactive); GI50 (KM12): > 100 µM (inactive); GI50 (LXFL 529): > 100 µM (inactive); GI50 (M14): > 100 µM (inactive); GI50 (M19-MEL): > 100 µM (inactive); GI50 (MOLT-4): > 100 µM (inactive); GI50 (Malme-3M): > 100 µM (inactive); GI50 (NCI-H226): > 100 µM (inactive); GI50 (NCI-H23): > 100 µM (inactive); GI50 (NCI-H460): > 100 µM (inactive); GI50 (NCI-H522): > 100 µM (inactive); GI50 (OVCAR-4): > 100 µM (inactive); GI50 (OVCAR-5): > 100 µM (inactive); GI50 (OVCAR-8): > 100 µM (inactive); GI50 (RPMI-8226): > 100 µM (inactive); GI50 (RXF 393): > 100 µM (inactive); GI50 (SF-268): > 100 µM (inactive); GI50 (SF-295): > 100 µM (inactive); GI50 (SF-539): > 100 µM (inactive); GI50 (SK-MEL-28): > 100 µM (inactive); GI50 (SK-MEL-2): > 100 µM (inactive); GI50 (SK-MEL-5): > 100 µM (inactive); GI50 (SK-OV-3): > 100 µM (inactive); GI50 (SN12C): > 100 µM (inactive); GI50 (SNB-19): > 100 µM (inactive); GI50 (SNB-75): 55.2 µM (inactive); GI50 (SNB-78): > 100 µM (inactive); GI50 (SR): > 100 µM (inactive); GI50 (TK-10): > 100 µM (inactive); GI50 (U-251): > 100 µM (inactive); GI50 (UACC-257): > 100 µM (inactive); GI50 (UACC-62): > 100 µM (inactive); GI50 (UO-31): > 100 µM (inactive); GI50 (XF498): > 100 µM (inactive)

**Q.** How did the GI50 (786-0) turn out when CC(C)N(C(=O)C12C3C4C1C1C2C3C41C(N)=O)C(C)C (stereo not given) was run?
**A.** Its GI50 is > 100 µM (inactive).

**Q.** And the GI50 (A498)?
**A.** The GI50 was > 100 µM (inactive).

**Q.** What about the GI50 (A549) of the same compound?
**A.** The GI50 was > 100 µM (inactive).

**Q.** What about the GI50 (ACHN) of the same compound?
**A.** The GI50 was > 100 µM (inactive).

**Q.** And the GI50 (CAKI-1)?
**A.** Its GI50 is > 100 µM (inactive).

**Q.** What about the GI50 (CCRF-CEM) of the same compound?
**A.** The GI50 was > 100 µM (inactive).

**Q.** And the GI50 (COLO 205)?
**A.** Its GI50 is > 100 µM (inactive).

**Q.** What about the GI50 (DMS-114) of the same compound?
**A.** Its GI50 is > 100 µM (inactive).

**Q.** What about the GI50 (DMS-273) of the same compound?
**A.** Its GI50 is > 100 µM (inactive).

**Q.** And the GI50 (EKVX)?
**A.** Its GI50 is > 100 µM (inactive).

**Q.** What about the GI50 (HCC 2998) of the same compound?
**A.** Its GI50 is > 100 µM (inactive).

**Q.** And the GI50 (HCT-15)?
**A.** The GI50 was greater than 100 µM.

**Q.** What about the GI50 (HOP-62) of the same compound?
**A.** The GI50 was > 100 µM (inactive).

**Q.** And the GI50 (HOP-92)?
**A.** The GI50 was > 100 µM (inactive).

**Q.** And the GI50 (IGROV-1)?
**A.** The GI50 was > 100 µM (inactive).

**Q.** And the GI50 (K562)?
**A.** The GI50 was > 100 µM (inactive).

**Q.** And the GI50 (KM-20L2)?
**A.** Its GI50 is > 100 µM (inactive).

**Q.** What about the GI50 (LXFL 529) of the same compound?
**A.** The GI50 was > 100 µM (inactive).

**Q.** What about the GI50 (M14) of the same compound?
**A.** Its GI50 is > 100 µM (inactive).

**Q.** And the GI50 (M19-MEL)?
**A.** The GI50 was > 100 µM (inactive).

**Q.** What about the GI50 (MOLT-4) of the same compound?
**A.** Its GI50 is > 100 µM (inactive).

**Q.** And the GI50 (Malme-3M)?
**A.** The GI50 was > 100 µM (inactive).

**Q.** And the GI50 (NCI-H522)?
**A.** Its GI50 is > 100 µM (inactive).

**Q.** What about the GI50 (OVCAR-3) of the same compound?
**A.** Its GI50 is > 100 µM (inactive).

**Q.** What about the GI50 (OVCAR-8) of the same compound?
**A.** Its GI50 is > 100 µM (inactive).

**Q.** What about the GI50 (RXF 631) of the same compound?
**A.** The GI50 was > 100 µM (inactive).

**Q.** And the GI50 (SF-268)?
**A.** The GI50 was > 100 µM (inactive).

**Q.** What about the GI50 (SF-295) of the same compound?
**A.** The GI50 was > 100 µM (inactive).

**Q.** And the GI50 (SF-539)?
**A.** Its GI50 is > 100 µM (inactive).

**Q.** And the GI50 (SK-MEL-5)?
**A.** Its GI50 is > 100 µM (inactive).

**Q.** What about the GI50 (SK-OV-3) of the same compound?
**A.** The GI50 was > 100 µM (inactive).

**Q.** And the GI50 (SN12C)?
**A.** Its GI50 is > 100 µM (inactive).

**Q.** And the GI50 (SNB-19)?
**A.** Its GI50 is > 100 µM (inactive).

**Q.** And the GI50 (SNB-78)?
**A.** Its GI50 is > 100 µM (inactive).

**Q.** And the GI50 (SR)?
**A.** Its GI50 is > 100 µM (inactive).

**Q.** What about the GI50 (SW-620) of the same compound?
**A.** Its GI50 is > 100 µM (inactive).

**Q.** And the GI50 (U-251)?
**A.** The GI50 was > 100 µM (inactive).

**Q.** And the GI50 (UO-31)?
**A.** The GI50 was > 100 µM (inactive).

**Q.** What does the source list for O=C1C2c3[nH]c4ccccc4c3[C@@H]3CCCCC3C2C(=O)N1c1ccccc1 (stereo not given in full)?
**A.** GI50 (786-0): 18.9 µM (inactive); GI50 (A498): 28.6 µM (inactive); GI50 (A549): 28.8 µM (inactive); GI50 (ACHN): 25.4 µM (inactive); GI50 (CCRF-CEM): 26.5 µM (inactive); GI50 (COLO 205): 19.1 µM (inactive); GI50 (DLD-1): 26.2 µM (inactive); GI50 (DMS-114): 22.1 µM (inactive); GI50 (DMS-273): 17.3 µM (inactive); GI50 (EKVX): 15.3 µM (inactive); GI50 (HCC 2998): 19.3 µM (inactive); GI50 (HCT-15): 25.7 µM; GI50 (HL-60): 20.3 µM (inactive); GI50 (HT-29): 19.7 µM (inactive); GI50 (IGROV-1): 23 µM (inactive); GI50 (K562): 20.9 µM (inactive); GI50 (KM12): 19.2 µM (inactive); GI50 (LOX IMVI): 15.8 µM (inactive); GI50 (LXFL 529): 17.6 µM (inactive); GI50 (M14): 15 µM (inactive); GI50 (M19-MEL): 19.1 µM (inactive); GI50 (MOLT-4): 19 µM (inactive); GI50 (Malme-3M): 20.6 µM (inactive); GI50 (NCI-H226): 21 µM (inactive); GI50 (NCI-H23): 19.5 µM (inactive); GI50 (NCI-H460): 17.8 µM (inactive); GI50 (OVCAR-3): 15.4 µM (inactive); GI50 (OVCAR-4): 20.5 µM (inactive); GI50 (OVCAR-5): 16.8 µM (inactive); GI50 (OVCAR-8): 26.4 µM (inactive); GI50 (RPMI-8226): 17.5 µM (inactive); GI50 (RXF 393): 16.7 µM (inactive); GI50 (RXF 631): 14.8 µM (inactive); GI50 (SF-268): 18.7 µM (inactive); GI50 (SF-295): 21.1 µM (inactive); GI50 (SF-539): > 10 µM (inactive); GI50 (SK-MEL-28): 18.2 µM (inactive); GI50 (SK-MEL-5): 17.9 µM (inactive); GI50 (SK-OV-3): 26.9 µM (inactive); GI50 (SN12C): 17.8 µM (inactive); GI50 (SNB-19): 36.1 µM (inactive); GI50 (SNB-75): 27.2 µM (inactive); GI50 (SNB-78): 19.3 µM (inactive); GI50 (SR): 19.8 µM (inactive); GI50 (SW-620): 19.1 µM (inactive); GI50 (TK-10): 28 µM (inactive); GI50 (U-251): 14.4 µM (inactive); GI50 (UACC-62): 16.6 µM (inactive); GI50 (UO-31): 17.3 µM (inactive)
